Experimental data taken from ChEMBL document CHEMBL1201862, “PubChem BioAssay data set” (2004).
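Where inhibition never reached the appropriate level, the endpoint shown equals the highest concentration tested. Otherwise, values were interpolated linearly from a five-concentration, 48-hour dose response in 96-well plates. Abbreviation: GI50, concentration required for 50% inhibition of growth.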 Active and inactive are the calls of the source. No stated cut-off is given here; in the data, active = GI50 up to about 1.1 µM and inactive = higher.

Tests used:
Assay in all cases: NCI anticancer screen, dose series, 48 h
786-0 = tested on: 786-0
A549 = tested on: A549
ACHN = tested on: ACHN
BT-549 = tested on: BT-549
CAKI-1 = tested on: CAKI-1
CCRF-CEM = tested on: CCRF-CEM
COLO 205 = tested on: COLO 205
DU-145 = tested on: DU-145
EKVX = tested on: EKVX
HCC 2998 = tested on: HCC 2998
HCT-116 = tested on: HCT-116
HCT-15 = tested on: HCT-15
HL-60 = tested on: HL-60
HOP-62 = tested on: HOP-62
HOP-92 = tested on: HOP-92
HT-29 = tested on: HT-29
Hs-578T = tested on: Hs-578T
IGROV-1 = tested on: IGROV-1
K562 = tested on: K562
KM12 = tested on: KM12
LOX IMVI = tested on: LOX IMVI
M14 = tested on: M14
MCF7 = tested on: MCF7
MDA-MB-231 = tested on: MDA-MB-231
MDA-MB-435 = tested on: MDA-MB-435
MDA-N = tested on: MDA-N
MOLT-4 = tested on: MOLT-4
Malme-3M = tested on: Malme-3M
NCI-H226 = tested on: NCI-H226
NCI-H23 = tested on: NCI-H23
NCI-H460 = tested on: NCI-H460
NCI/ADR-RES = tested on: NCI/ADR-RES
OVCAR-3 = tested on: OVCAR-3
OVCAR-4 = tested on: OVCAR-4
OVCAR-5 = tested on: OVCAR-5
OVCAR-8 = tested on: OVCAR-8
PC-3 = tested on: PC-3
RPMI-8226 = tested on: RPMI-8226
RXF 393 = tested on: RXF 393
SF-268 = tested on: SF-268
SF-295 = tested on: SF-295
SF-539 = tested on: SF-539
SK-MEL-28 = tested on: SK-MEL-28
SK-MEL-2 = tested on: SK-MEL-2
SK-MEL-5 = tested on: SK-MEL-5
SK-OV-3 = tested on: SK-OV-3
SN12C = tested on: SN12C
SNB-19 = tested on: SNB-19
SR = tested on: SR
SW-620 = tested on: SW-620
T47D = tested on: T47D
TK-10 = tested on: TK-10
U-251 = tested on: U-251
UACC-257 = tested on: UACC-257
UACC-62 = tested on: UACC-62
UO-31 = tested on: UO-31
A498 = tested on: A498
NCI-H522 = tested on: NCI-H522
SNB-75 = tested on: SNB-75

SMILES: COc1cc2c(cc1OC)C(=O)/C(=C/c1ccc(N(C)C)cc1)CC2
- GI50 (786-0): > 10 µM (inactive)
- GI50 (A549): > 10 µM (inactive)
- GI50 (ACHN): > 10 µM (inactive)
- GI50 (BT-549): > 10 µM (inactive)
- GI50 (CAKI-1): > 10 µM (inactive)
- GI50 (CCRF-CEM): 9.77 µM (inactive)
- GI50 (COLO 205): > 10 µM (inactive)
- GI50 (DU-145): > 10 µM (inactive)
- GI50 (EKVX): > 10 µM (inactive)
- GI50 (HCC 2998): > 10 µM (inactive)
- GI50 (HCT-116): > 10 µM (inactive)
- GI50 (HCT-15): > 10 µM
- GI50 (HL-60): > 10 µM (inactive)
- GI50 (HOP-62): > 10 µM (inactive)
- GI50 (HOP-92): > 10 µM (inactive)
- GI50 (HT-29): > 10 µM (inactive)
- GI50 (Hs-578T): > 10 µM (inactive)
- GI50 (IGROV-1): > 10 µM (inactive)
- GI50 (K562): > 10 µM (inactive)
- GI50 (KM12): > 10 µM (inactive)
- GI50 (LOX IMVI): > 10 µM (inactive)
- GI50 (M14): > 10 µM (inactive)
- GI50 (MCF7): > 10 µM (inactive)
- GI50 (MDA-MB-231): > 10 µM (inactive)
- GI50 (MDA-MB-435): > 10 µM (inactive)
- GI50 (MDA-N): > 10 µM (inactive)
- GI50 (MOLT-4): > 10 µM (inactive)
- GI50 (Malme-3M): > 10 µM (inactive)
- GI50 (NCI-H226): > 10 µM (inactive)
- GI50 (NCI-H23): > 10 µM (inactive)
- GI50 (NCI-H460): > 10 µM (inactive)
- GI50 (NCI/ADR-RES): > 10 µM (inactive)
- GI50 (OVCAR-3): > 10 µM (inactive)
- GI50 (OVCAR-4): > 10 µM (inactive)
- GI50 (OVCAR-5): > 10 µM (inactive)
- GI50 (OVCAR-8): > 10 µM (inactive)
- GI50 (PC-3): > 10 µM (inactive)
- GI50 (RPMI-8226): > 10 µM (inactive)
- GI50 (RXF 393): > 10 µM (inactive)
- GI50 (SF-268): > 10 µM (inactive)
- GI50 (SF-295): > 10 µM (inactive)
- GI50 (SF-539): > 10 µM (inactive)
- GI50 (SK-MEL-28): > 10 µM (inactive)
- GI50 (SK-MEL-2): 0.962 µM (active)
- GI50 (SK-MEL-5): > 10 µM (inactive)
- GI50 (SK-OV-3): > 10 µM (inactive)
- GI50 (SN12C): > 10 µM (inactive)
- GI50 (SNB-19): > 10 µM (inactive)
- GI50 (SR): > 10 µM (inactive)
- GI50 (SW-620): > 10 µM (inactive)
- GI50 (T47D): > 10 µM (inactive)
- GI50 (TK-10): > 10 µM (inactive)
- GI50 (U-251): > 10 µM (inactive)
- GI50 (UACC-257): 3.38 µM (inactive)
- GI50 (UACC-62): > 10 µM (inactive)
- GI50 (UO-31): > 10 µM (inactive)

SMILES: COc1cccc(/C=N/n2c(Cc3ccccc3)n[nH]c2=O)c1
- GI50 (786-0): 50.1 µM (inactive)
- GI50 (A498): > 100 µM (inactive)
- GI50 (A549): > 100 µM (inactive)
- GI50 (ACHN): > 100 µM (inactive)
- GI50 (BT-549): > 100 µM (inactive)
- GI50 (CAKI-1): > 47.4 µM (inactive)
- GI50 (CCRF-CEM): > 100 µM (inactive)
- GI50 (COLO 205): > 100 µM (inactive)
- GI50 (DU-145): > 100 µM (inactive)
- GI50 (EKVX): > 72.6 µM (inactive)
- GI50 (HCC 2998): > 100 µM (inactive)
- GI50 (HCT-116): > 100 µM (inactive)
- GI50 (HCT-15): > 100 µM
- GI50 (HOP-62): 42.9 µM (inactive)
- GI50 (HT-29): > 35.4 µM (inactive)
- GI50 (Hs-578T): 26.7 µM (inactive)
- GI50 (K562): > 100 µM (inactive)
- GI50 (KM12): > 76.2 µM (inactive)
- GI50 (LOX IMVI): 48.9 µM (inactive)
- GI50 (M14): > 100 µM (inactive)
- GI50 (MCF7): > 100 µM (inactive)
- GI50 (MDA-MB-231): > 100 µM (inactive)
- GI50 (MDA-MB-435): > 100 µM (inactive)
- GI50 (MDA-N): > 100 µM (inactive)
- GI50 (MOLT-4): > 100 µM (inactive)
- GI50 (Malme-3M): > 67.6 µM (inactive)
- GI50 (NCI-H23): > 100 µM (inactive)
- GI50 (NCI-H460): > 100 µM (inactive)
- GI50 (NCI-H522): 16.8 µM (inactive)
- GI50 (NCI/ADR-RES): > 31.9 µM (inactive)
- GI50 (OVCAR-3): > 100 µM (inactive)
- GI50 (OVCAR-4): > 100 µM (inactive)
- GI50 (OVCAR-5): > 100 µM (inactive)
- GI50 (OVCAR-8): 69 µM (inactive)
- GI50 (PC-3): > 100 µM (inactive)
- GI50 (RPMI-8226): > 100 µM (inactive)
- GI50 (RXF 393): 11.2 µM (inactive)
- GI50 (SF-268): 43 µM (inactive)
- GI50 (SF-295): 38.5 µM (inactive)
- GI50 (SF-539): > 100 µM (inactive)
- GI50 (SK-MEL-28): > 100 µM (inactive)
- GI50 (SK-MEL-2): > 100 µM (inactive)
- GI50 (SK-MEL-5): 33.9 µM (inactive)
- GI50 (SK-OV-3): > 100 µM (inactive)
- GI50 (SN12C): > 19.7 µM (inactive)
- GI50 (SNB-19): > 100 µM (inactive)
- GI50 (SNB-75): 29.4 µM (inactive)
- GI50 (SW-620): > 100 µM (inactive)
- GI50 (T47D): > 73.6 µM (inactive)
- GI50 (TK-10): > 100 µM (inactive)
- GI50 (U-251): > 100 µM (inactive)
- GI50 (UACC-257): > 100 µM (inactive)
- GI50 (UACC-62): > 100 µM (inactive)
- GI50 (UO-31): > 100 µM (inactive)

SMILES: CCN1CCC(O)(c2ccc(Oc3ccc(C)cc3)cc2)C(C(=O)c2ccc(Oc3ccc(C)cc3)cc2)C1 (stereo unspecified)
- GI50 (786-0): 4.99 µM (inactive)
- GI50 (A498): 0.426 µM (active)
- GI50 (A549): 12.8 µM (inactive)
- GI50 (ACHN): 13.2 µM (inactive)
- GI50 (BT-549): 10.6 µM (inactive)
- GI50 (CAKI-1): 12.9 µM (inactive)
- GI50 (CCRF-CEM): 5.13 µM (inactive)
- GI50 (COLO 205): 12.1 µM (inactive)
- GI50 (DU-145): 7.28 µM (inactive)
- GI50 (EKVX): 15.6 µM (inactive)
- GI50 (HCC 2998): 7.91 µM (inactive)
- GI50 (HCT-116): 6.41 µM (inactive)
- GI50 (HCT-15): 4.01 µM
- GI50 (HL-60): 1.68 µM (inactive)
- GI50 (HOP-62): 15.2 µM (inactive)
- GI50 (HOP-92): 10 µM (inactive)
- GI50 (HT-29): 3.33 µM (inactive)
- GI50 (Hs-578T): 17.8 µM (inactive)
- GI50 (IGROV-1): 12.5 µM (inactive)
- GI50 (K562): 2.95 µM (inactive)
- GI50 (KM12): 6.37 µM (inactive)
- GI50 (LOX IMVI): 3.69 µM (inactive)
- GI50 (M14): 7.43 µM (inactive)
- GI50 (MCF7): 2.42 µM (inactive)
- GI50 (MDA-MB-231): 6.18 µM (inactive)
- GI50 (MDA-MB-435): 11.6 µM (inactive)
- GI50 (MDA-N): 10.7 µM (inactive)
- GI50 (MOLT-4): 10.3 µM (inactive)
- GI50 (Malme-3M): 14.6 µM (inactive)
- GI50 (NCI-H226): 14.1 µM (inactive)
- GI50 (NCI-H23): 13.7 µM (inactive)
- GI50 (NCI-H460): 3.28 µM (inactive)
- GI50 (NCI/ADR-RES): 13.8 µM (inactive)
- GI50 (OVCAR-3): 16 µM (inactive)
- GI50 (OVCAR-4): 1.94 µM (inactive)
- GI50 (OVCAR-5): 13.9 µM (inactive)
- GI50 (OVCAR-8): 13.7 µM (inactive)
- GI50 (PC-3): 10.9 µM (inactive)
- GI50 (RPMI-8226): 1.48 µM (inactive)
- GI50 (RXF 393): 2.81 µM (inactive)
- GI50 (SF-268): 17 µM (inactive)
- GI50 (SF-295): 5.69 µM (inactive)
- GI50 (SK-MEL-28): 11.2 µM (inactive)
- GI50 (SK-MEL-2): 18 µM (inactive)
- GI50 (SK-MEL-5): 8.04 µM (inactive)
- GI50 (SK-OV-3): 16.1 µM (inactive)
- GI50 (SN12C): 14.8 µM (inactive)
- GI50 (SNB-19): 14.2 µM (inactive)
- GI50 (SNB-75): 7.16 µM (inactive)
- GI50 (SW-620): 12.9 µM (inactive)
- GI50 (T47D): 12.8 µM (inactive)
- GI50 (TK-10): 8.61 µM (inactive)
- GI50 (U-251): 11.6 µM (inactive)
- GI50 (UACC-257): 13.2 µM (inactive)
- GI50 (UACC-62): 12.1 µM (inactive)
- GI50 (UO-31): 3.77 µM (inactive)
